Assay results: BindingDB's records for doi:10.1016/j.bioorg.2015.02.008 (University of Strasburg, 2015)

Biological target: T1, 1-deoxy-D-xylulose 5-phosphate reductoisomerase (Escherichia coli (strain K12), UniProt P45568)
T1 sequence (P45568 whole entry): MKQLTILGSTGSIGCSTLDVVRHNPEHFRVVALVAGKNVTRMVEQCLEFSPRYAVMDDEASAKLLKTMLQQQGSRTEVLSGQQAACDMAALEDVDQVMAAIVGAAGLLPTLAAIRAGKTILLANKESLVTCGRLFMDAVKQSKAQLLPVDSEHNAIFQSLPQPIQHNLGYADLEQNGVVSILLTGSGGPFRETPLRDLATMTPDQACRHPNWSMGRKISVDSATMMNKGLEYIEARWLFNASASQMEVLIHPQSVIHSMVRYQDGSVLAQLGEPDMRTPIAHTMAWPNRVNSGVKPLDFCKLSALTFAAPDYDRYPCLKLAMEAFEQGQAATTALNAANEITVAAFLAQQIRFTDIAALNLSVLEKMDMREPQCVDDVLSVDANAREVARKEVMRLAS
Test: DXR Inhibition Assay
Protocol: H-DXR was pre-incubated during 2 min in the presence of the inhibitors at different concentrations and DXP (480 µM). NADPH (160 µM final concentration) was then added to measure the residual activity. The flavonoids are poorly soluble in water. Flavonoids solutions at different concentrations were prepared in DMSO by serial dilutions from 100 mM stock solutions. […] The inhibition mechanism of myricetin was studied by preincubating H-DXR with DXP at varied concentrations (96 480 µM) and fixed concentrations of myricetin (0.5, 1 and 2 µM). The enzymatic reaction was initiated by NADPH (final concentration160 µM). Fosmidomycin was used as a positive reference.

Q: Which IC50 does the source give for `O=c1c(O)c(-c2cc(O)c(O)c(O)c2)oc2cc(O)cc(O)c12` here?
A: 1500 nM

Q: For `O=c1cc(-c2ccccc2)oc2cc(O)c(O)c(O)c12`, which IC50 is on record?
A: 2200 nM

Q: Which IC50 does the source give for `O=c1c(O)c(-c2ccc(O)c(O)c2)oc2cc(O)cc(O)c12` [2-(3,4-dihydroxyphenyl)-3,5,7-trihydroxy-chromone;hydrate] here?
A: 1900 nM

Q: With `O=c1c(O)c(-c2ccc(O)c(O)c2)oc2cc(O)ccc12` [2-(3,4-dihydroxyphenyl)-3,7-dihydroxy-chromen-4-one] as the compound, how does the IC50 read?
A: 3500 nM

Q: With `O=c1cc(-c2ccc(O)c(O)c2)oc2cc(O)cc(O)c12` [2-(3,4-dihydroxyphenyl)-5,7-dihydroxy-4H-chromen-4-one] as the compound, how does the IC50 read?
A: 3400 nM
